Data set [1] can be described thus: Thermodynamic aqueous solubility in USP phosphate buffer (Example 25). Type of data set: physicochemical. The note with it: USP phosphate buffer pH 7.4, 24 h at 20° C., LC-MS/MS, read-out: Thermodynamic aq solubility. The procedure: The method described here was developed to accurately determine the aqueous solubility of compounds of the invention in buffer solution at a given pH.
Solid material (1 mg) of test compound is added to a glass vial followed by 1 ml of buffer solution (pH 7.4 if another pH not is stated). The solution is left on an orbital shaker for 24 h at 20° C. After incubation, the remaining solid material is separated from solution and the solubility is quantified using LC-MS/MS.
Prepare 0.2 M monobasic potassium phosphate solution by dissolving 27.22 g of KH2PO4 (MW=136.09 g/mol) in water, dilute with water to 1000 mL.
Add 250 mL of the monobasic potassium phosphate solution in a 1000 mL volumetric flask together with 195.5 mL 0.2M NaOH (aq). Add water to 1000 mL. Check pH.
Compounds of the invention/examples to be tested were provided as solid material, weighed into glass vials (2 mL). Each vial contains approximately 1 mg solid compound, two vials/compound are prepared, i.e. duplicate samples of each compound. If a freshly prepared 10 mM DMSO stock solution was available, this solution was used for MS optimization and preparation of standards. If a DMSO-stock solution was not available, a 10 mM solution from solid material 1 mg was prepared.
• Test compounds are employed as solid material. Since duplicate samples are prepared for each compound, each test compound arrives in two vials (1+1 mg). Samples are denoted as sample 1 and 2. • Note amount of substance in each vial. Add USP phosphate buffer pH 7.4 (1 mL) to each sample vial and seal vials using screw caps. Determine whether the solutions are saturated or if compounds are dissolved, note appearance and time. Start incubation; the samples are incubated on an orbital shaker (450 rpm) at 20° C. for 24 hours.
• Take out the 1 mM DMSO-stock solutions of compounds that are to be tested from freezer. If no 1 mM solutions are available, use master solutions with concentration of 10 mM. Allow the solutions to thaw at rt. • Collect two 96-deep well plates, glass inserts, sealing film, and an 8-channel expandable pipette with tall tips. • Abort shaking after 24 hour. • Note if samples are saturated or if compounds have dissolved. • Transfer 720 μL of sample slurry from each sample vial into glass inserts in a 96-deep well plate using an 8-channel expandable pipette. Samples 1 and 2 are transferred to separate plates. Thus, all samples 1 are placed in one plate and all samples 2 in the second plate. • Seal the plates using sealing film. • Centrifuge the plates at 3000 rpm for 15 min at rt. Set acceleration to 9 and brake to 7 (9=fastest acc/brake, 0=slowest acc/brake). • Transfer the supernatants to new glass inserts using an 8-channel pipette, centrifuge samples a second time. • Repeat the procedure above, i.e. centrifuge samples a third time. • After the third centrifugation, transfer supernatant to glass vials, seal vials with screw caps. Control that the solutions are clear and that no particles are present in sample. If solid material is observed, an additional centrifugation step is performed. • Standards are prepared from DMSO-stock solutions (1 or 10 mM). For each compound, transfer […] 1 mM solution to a glass vial, add DMSO (90 μL) to reach a final concentration of 100 μM, seal with screw cap and mix solution quickly on a vortex mixer. Further dilute the 100 μM solution with a 1:1 mixture of acetonitrile and USP phosphate buffer (pH 7.4) to standards with concentration 1000, 500, 100, 25, 2, and 1 nM. Standards are prepared in test tubes.
• Place standards in autosampler. • Try out the dilution of solubility samples so that their response will be within the standard curve. Dilute solubility sample one (or two) with the 1:1 mixture of acetonitrile:buffer. […]

In the next data set the target is T1, LTC4 synthase (Homo sapiens, UniProt Q16873).
T1 sequence (Q16873 1-150): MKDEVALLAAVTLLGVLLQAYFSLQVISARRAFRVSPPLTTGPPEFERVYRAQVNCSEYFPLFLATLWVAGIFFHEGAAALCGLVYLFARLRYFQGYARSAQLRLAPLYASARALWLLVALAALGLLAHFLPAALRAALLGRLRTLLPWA
Nature of the data set: Test 1 in vitro assay: LTC4 synthase converts LTA4 to LTC4, HTRF detection. In kind it is biochemical. Set-up: made in house; host or cells: Pichia pastoris. The note with it: Test 1 (unless otherwise indicated). The procedure: In the assay, LTC4 synthase catalyses the reaction where the substrate LTA4 is converted to LTC4. Recombinant human LTC4 synthase is expressed in Piccia pastoralis and the purified enzyme is dissolved in 25 mM tris-buffer pH 7.8 supplemented with 0.1 mM glutathione (GSH) and stored at −80° C. The assay is performed in phosphate buffered saline (PBS) pH 7.4 and 5 mM GSH in 384-well plates.
The following is added chronologically to each well:
1. 48 μL LTC4 synthase in PBS with 5 mM GSH. The total protein concentration in this solution is 0.5 μg/mL. 2. 1 μL inhibitor in DMSO (final concentration 10 μM). 3. Incubation of the plate at room temperature for 10 min. 4. 1 μL LTA4 (final concentration 2.5 μM). 5. Incubation of the plate at room temperature for 5 min. 6. 10 μL of the incubation mixture is analysed using homogenous time resolved fluorescent (HTRF) detection.
IC50 values for title compounds of the examples are depicted in the tables hereinafter (where, they are the values obtained using Test 1, unless otherwise indicated).
On the technique in general: Time-resolved FRET reads energy transfer from a long-lived donor to a nearby acceptor.

[2] abbreviates: aqueous buffer, thermodynamic from solid.

In general, thermodynamic solubility refers to solubility found after equilibrating the solid with the medium. In general, IC50 refers to the concentration that gives 50% inhibition. Low readings indicate greater potency in that assay, high ones weaker potency in that assay.

Converted amounts (≈) assume the structure as drawn. Like-named read-outs stand apart in the source and are kept apart here.

With `COc1ccc(C(=O)c2ccc(C(=O)c3ccc(N(CC4CC4)c4ccc(Cl)cc4)cn3)cc2C(=O)O)cc1` [1:4, 5-{5-[(4-Chlorophenyl)(cyclopropylmethyl)amino]picolinoyl}-2-(4-methoxy-benzoyl)benzoic acid], the thermodynamic solubility at 24 h in data set [1] (setting [2]) was 2210 µM (≈ 1200 µg/mL).
Same read-out and setting: to `COc1ccc(C(=O)c2ccc(C(=O)c3ccc(N(CC4CC4)c4ccc(Cl)cc4F)cn3)cc2C(=O)O)cc1` [1:5, 5-{5-[(4-Chloro-2-fluorophenyl)(cyclopropylmethyl)amino]picolinoyl}-2-(4-methoxybenzoyl)benzoic acid] belongs 2480 µM (≈ 1380 µg/mL).
Consider `CCCCCCC(=O)c1ccc(C(=O)c2ccc(N(C)c3ccc(Cl)cc3)cn2)cc1C(=O)O` [1:17, 5-{5-[(4-Chlorophenyl)(methyl)amino]picolinoyl}-2-heptanoylbenzoic acid], for which the solubility (thermodynamic) at 24 h in data set [1] (setting [2]) came out at 153 µM (≈ 73.3 µg/mL).
The same measure, in the same setting: to `CN(c1ccc(Cl)cc1)c1ccc(C(=O)c2ccc(C(=O)C3(c4ccccc4)CC3)c(C(=O)O)c2)nc1` [1:19, 5-{5-[(4-Chlorophenyl)(methyl)amino]picolinoyl}-2-(1-phenylcyclopropyl-carbonyl)benzoic acid] belongs 680 µM (≈ 347 µg/mL); to `CN(c1ccc(Cl)cc1)c1ccc(C(=O)c2ccc(C(=O)c3ccccc3)c(C(=O)O)c2)nc1` [Example 1:1, 2-Benzoyl-5-{5-[(4-chlorophenyl)(methyl)amino]picolinoyl}benzoic acid], 2580 µM (≈ 1210 µg/mL).
`CN(c1ccc(Cl)cc1)c1ccc(C(=O)c2ccc(C(=O)c3cccc(C(Cl)Cl)c3)c(C(=O)O)c2)nc1` [Example 2, 5-(5-((4-Chlorophenyl)(methyl)amino)picolinoyl)-2-(3-(dichloromethyl)benzoyl)-benzoic acid] displayed an IC50 against LTC4 synthase of 34 nM.
`CN(c1ccc(Cl)cc1)c1ccc(C(=O)c2ccc(C(=O)c3cccc(C=O)c3)c(C(=O)O)c2)nc1` [Example 3, 5-(5-((4-Chlorophenyl)(methyl)amino)picolinoyl)-2-(3-formylbenzoyl)benzoic acid] showed an IC50 on LTC4 synthase of 52 nM.
The same measure, in the same setting: as for `O=C(c1ccc(C(=O)c2ccc3c(c2)OCCO3)c(C(=O)O)c1)c1ccc(N(CC2CC2)c2ccc(Cl)cc2)cn1` [Example 4, 5-(5-((4-Chlorophenyl)(cyclopropylmethyl)amino)picolinoyl)-2-(2,3-dihydrobenzo-[b][1,4]dioxine-6-carbonyl)benzoic acid], the figure is 21 nM.
Same read-out and setting: to `O=C(c1ccc(Cl)cc1)c1ccc(C(=O)c2ccc(C(=O)c3ccccc3)c(C(=O)O)c2)nc1` [Example 5, 2-Benzoyl-5-(5-(4-chlorobenzoyl)picolinoyl)benzoic acid] belongs 1290 nM.
As to `COc1cccc(C(=O)c2ccc(C(=O)c3ccc(Cc4ccc(Cl)cc4)cn3)cc2C(=O)O)c1` [Example 6, 5-(5-(4-Chlorobenzyl)picolinoyl)-2-(3-methoxybenzoyl)benzoic acid], the solubility (thermodynamic) at 24 h in data set [1] (setting [2]) worked out at 1900 µM (≈ 924 µg/mL). The molecule also yielded an IC50 against LTC4 synthase of 155 nM.
On LTC4 synthase, `CN(c1ccc(Cl)cc1)c1ccc(C(=O)c2ccc(C(=O)c3cccc(O)c3)c(C(=O)O)c2)nc1` [Example 7, 5-(5-((4-Chlorophenyl)(methyl)amino)picolinoyl)-2-(3-hydroxybenzoyl)benzoic acid] displayed an IC50 of 83 nM.
In the case of `O=C(c1ccc(C(=O)C2(c3ccccc3)CC2)c(C(=O)O)c1)c1ccc(N(CC2CC2)c2ccc(Cl)cc2)cn1` [Example 8, 5-(5-((4-Chlorophenyl)(cyclopropylmethyl)amino)picolinoyl)-2-(1-phenylcyclopropanecarbonyl)benzoic acid], the thermodynamic solubility at 24 h in data set [1] (setting [2]) turned out to be 125 µM (≈ 68.9 µg/mL). For the same molecule, half-maximal inhibition against LTC4 synthase (Table 2) (IC50) required 41 nM.
Consider `CN(c1ccc(Cl)cc1)c1ccc(C(=O)c2ccc(C(=O)C3(c4ccccc4)CCCCC3)c(C(=O)O)c2)nc1` [Example 9, 5-(5-((4-Chlorophenyl)(methyl)amino)picolinoyl)-2-(1-phenylcyclohexanecarbonyl)benzoic acid], for which the solubility (thermodynamic) at 24 h in data set [1] is given as 7 µM (≈ 3.87 µg/mL). The molecule also returned an IC50 on LTC4 synthase (Table 2) of 32 nM.
Consider `COc1ccc(C2(C(=O)c3ccc(C(=O)c4ccc(N(C)c5ccc(Cl)cc5)cn4)cc3C(=O)O)CC2)cc1` [Example 10, 5-(5-((4-Chlorophenyl)(methyl)amino)picolinoyl)-2-(1-(4-methoxyphenyl)cyclopropanecarbonyl)benzoic acid], for which the thermodynamic solubility at 24 h in data set [1] (setting [2]) stood at 403 µM (≈ 218 µg/mL). For the same molecule, the IC50 on LTC4 synthase (Table 2) came out at 22 nM.
In turn, `CN(c1ccc(Cl)cc1)c1ccc(C(=O)c2ccc(C(=O)C3(c4ccccc4)CCCC3)c(C(=O)O)c2)nc1` [Example 11, 5-(5-((4-Chlorophenyl)(methyl)amino)picolinoyl)-2-(1-phenylcyclopentanecarbonyl)benzoic acid] displayed an IC50 against LTC4 synthase (Table 2) of 76 nM.
Consider `CN(c1ccc(Cl)cc1)c1ccc(C(=O)c2ccc(C(=O)C34CC5CC(CC(C5)C3)C4)c(C(=O)O)c2)nc1` [Example 12, 2-(Adamantane-1-carbonyl)-5-(5-((4-chlorophenyl)(methyl)amino)picolinoyl)benzoic acid], for which, in data set [1] (setting [2]), the solubility (thermodynamic) at 24 h is 15 µM (≈ 7.94 µg/mL). 65 nM corresponded to half-maximal inhibition against LTC4 synthase (Table 2) (IC50).
Consider `COc1cccc(C(=O)c2ccc(C(=O)c3ccc(N(CC4CC4)c4ccc(Cl)cc4)cn3)cc2C(=O)O)c1` [Example 13, 5-(5-((4-Chlorophenyl)(cyclopropylmethyl)amino)picolinoyl)-2-(3-methoxybenzoyl)benzoic acid], for which the IC50 against LTC4 synthase (Table 2) was 18 nM.
`CN(c1ccc(Cl)cc1)c1ccc(C(=O)c2ccc(C(=O)C(C)(C)c3ccccc3)c(C(=O)O)c2)nc1` [Example 16, 5-(5-((4-Chlorophenyl)(methyl)amino)picolinoyl)-2-(2-methyl-2-phenylpropanoyl)benzoic acid] showed an IC50 against LTC4 synthase (Table 2) of 55 nM.
`CN(c1ccc(Cl)cc1)c1ccc(C(=O)c2ccc(C(=O)CC(C)(C)C)c(C(=O)O)c2)nc1` [Example 17, 5-(5-((4-Chlorophenyl)(methyl)amino)picolinoyl)-2-(3,3-dimethylbutanoyl)benzoic acid] came in with an IC50 against LTC4 synthase (Table 2) of 235 nM.
`CN(c1ccc(Cl)cc1)c1ccc(C(=O)c2ccc(C(=O)C3CC3c3ccccc3)c(C(=O)O)c2)nc1` (stereo not drawn) [Example 19, 5-(5-((4-Chlorophenyl)(methyl)amino)picolinoyl)-2-(2-phenylcyclopropanecarbonyl)benzoic acid] came in with an IC50 against LTC4 synthase (Table 2) of 141 nM.
Still for that read-out and setting: as for `CN(c1ccc(Cl)cc1)c1ccc(C(=O)c2ccc(C(=O)CC3CCCC3)c(C(=O)O)c2)nc1` [Example 20, 5-(5-((4-Chlorophenyl)(methyl)amino)picolinoyl)-2-(2-cyclopentylacetyl)benzoic acid], the figure is 81 nM.
On the same count and under the same terms, to `COc1cccc(CC(=O)c2ccc(C(=O)c3ccc(N(C)c4ccc(Cl)cc4)cn3)cc2C(=O)O)c1` [Example 21] belongs 192 nM.

Source of the values: US20130035358A1, “Bis Aromatic Compounds for Use as LTC4 Synthase Inhibitors” (priority 2010, published 2013).
